Numbers after ± are expanded uncertainties.
Assay: xn = mol fraction of the nth substance listed
Conditions: 101.3 kPa, Liquid, Vibrating tube method

ClCCCl [1,2-dichloroethane] + CC(C)O
mass density [kg/m3]
Conditions | 288.15 K | 293.15 K | 298.15 K | 303.15 K | 308.15 K | 313.15 K
x2 = 0.05 | 1235.82 ± 0.56 | 1228.61 ± 0.55 | 1221.38 ± 0.54 | 1214.13 ± 0.53 | 1206.71 ± 0.53 | 1199.46 ± 0.52
x2 = 0.1004 | 1211.74 ± 0.53 | 1204.56 ± 0.52 | 1197.38 ± 0.52 | 1190.17 ± 0.51 | 1182.93 ± 0.5 | 1175.66 ± 0.49
x2 = 0.1497 | 1188.26 ± 0.51 | 1181.19 ± 0.5 | 1174.09 ± 0.49 | 1166.95 ± 0.48 | 1159.78 ± 0.47 | 1152.57 ± 0.47
x2 = 0.2 | 1164.61 ± 0.48 | 1157.64 ± 0.47 | 1150.63 ± 0.46 | 1143.59 ± 0.46 | 1136.5 ± 0.45 | 1129.37 ± 0.44
x2 = 0.25 | 1141.22 ± 0.45 | 1134.37 ± 0.45 | 1127.47 ± 0.44 | 1120.53 ± 0.43 | 1113.54 ± 0.42 | 1106.5 ± 0.42
x2 = 0.3002 | 1117.88 ± 0.43 | 1111.14 ± 0.42 | 1104.37 ± 0.41 | 1097.54 ± 0.41 | 1090.67 ± 0.4 | 1083.74 ± 0.39
x2 = 0.3502 | 1094.71 ± 0.41 | 1088.11 ± 0.4 | 1081.46 ± 0.39 | 1074.76 ± 0.38 | 1068 ± 0.38 | 1061.19 ± 0.37
x2 = 0.4001 | 1071.46 ± 0.38 | 1065.13 ± 0.38 | 1058.72 ± 0.37 | 1052.15 ± 0.36 | 1045.52 ± 0.35 | 1038.83 ± 0.35
x2 = 0.4503 | 1048.29 ± 0.36 | 1042.07 ± 0.35 | 1035.7 ± 0.34 | 1029.28 ± 0.34 | 1022.79 ± 0.33 | 1016.23 ± 0.33
x2 = 0.4996 | 1025.41 ± 0.34 | 1019.32 ± 0.33 | 1013.1 ± 0.32 | 1006.83 ± 0.32 | 1000.49 ± 0.31 | 994.079 ± 0.31
x2 = 0.5502 | 1002 ± 0.31 | 996.011 ± 0.31 | 989.957 ± 0.31 | 983.831 ± 0.31 | 977.648 ± 0.31 | 971.39 ± 0.31
x2 = 0.6 | 978.769 ± 0.31 | 972.943 ± 0.31 | 967.056 ± 0.31 | 961.099 ± 0.31 | 955.079 ± 0.31 | 948.987 ± 0.31
x2 = 0.6498 | 955.713 ± 0.31 | 950.066 ± 0.31 | 944.351 ± 0.31 | 938.562 ± 0.31 | 932.714 ± 0.31 | 926.783 ± 0.31
x2 = 0.7 | 932.242 ± 0.31 | 926.773 ± 0.31 | 921.244 ± 0.31 | 915.641 ± 0.31 | 909.966 ± 0.31 | 904.209 ± 0.31
x2 = 0.75 | 908.934 ± 0.31 | 903.601 ± 0.31 | 898.262 ± 0.31 | 892.85 ± 0.31 | 887.36 ± 0.31 | 881.789 ± 0.31
x2 = 0.7996 | 885.608 ± 0.31 | 880.568 ± 0.31 | 875.378 ± 0.31 | 870.212 ± 0.31 | 864.918 ± 0.31 | 859.549 ± 0.31
x2 = 0.8495 | 861.973 ± 0.32 | 857.114 ± 0.32 | 852.182 ± 0.32 | 847.228 ± 0.32 | 842.144 ± 0.32 | 836.984 ± 0.32
x2 = 0.8998 | 837.957 ± 0.32 | 833.329 ± 0.32 | 828.632 ± 0.32 | 823.858 ± 0.32 | 819.006 ± 0.32 | 814.085 ± 0.32
x2 = 0.9497 | 813.892 ± 0.32 | 809.502 ± 0.32 | 805.032 ± 0.32 | 800.505 ± 0.32 | 795.891 ± 0.32 | 791.195 ± 0.32

CCCC(C)O (configuration not stated) [pentan-2-ol] + ClCCCl
mass density [kg/m3]
Conditions | 288.15 K | 293.15 K | 298.15 K | 303.15 K | 308.15 K | 313.15 K
x1 = 0.0509 | 1226.72 ± 0.55 | 1219.63 ± 0.55 | 1212.52 ± 0.54 | 1205.37 ± 0.53 | 1198.2 ± 0.52 | 1191 ± 0.51
x1 = 0.0999 | 1196.47 ± 0.52 | 1189.53 ± 0.51 | 1182.56 ± 0.5 | 1175.56 ± 0.5 | 1168.53 ± 0.49 | 1161.46 ± 0.48
x1 = 0.1497 | 1167.33 ± 0.49 | 1160.55 ± 0.48 | 1153.74 ± 0.47 | 1146.89 ± 0.46 | 1140.02 ± 0.46 | 1133.12 ± 0.45
x1 = 0.2001 | 1139.13 ± 0.46 | 1132.52 ± 0.45 | 1125.87 ± 0.44 | 1119.19 ± 0.43 | 1112.48 ± 0.43 | 1105.73 ± 0.42
x1 = 0.2502 | 1112.6 ± 0.43 | 1106.17 ± 0.42 | 1099.71 ± 0.41 | 1093.19 ± 0.41 | 1086.65 ± 0.4 | 1080.06 ± 0.39
x1 = 0.2998 | 1087.39 ± 0.4 | 1081.13 ± 0.39 | 1074.82 ± 0.39 | 1068.48 ± 0.38 | 1062.1 ± 0.37 | 1055.67 ± 0.37
x1 = 0.3504 | 1062.46 ± 0.37 | 1056.4 ± 0.37 | 1050.28 ± 0.36 | 1044.1 ± 0.35 | 1037.89 ± 0.35 | 1031.63 ± 0.34
x1 = 0.4003 | 1038.87 ± 0.35 | 1033 ± 0.34 | 1027.05 ± 0.34 | 1021.06 ± 0.33 | 1015.01 ± 0.32 | 1008.92 ± 0.32
x1 = 0.4498 | 1016.42 ± 0.33 | 1010.71 ± 0.32 | 1004.93 ± 0.31 | 999.094 ± 0.31 | 993.214 ± 0.31 | 987.283 ± 0.31
x1 = 0.4996 | 994.615 ± 0.31 | 989.082 ± 0.31 | 983.473 ± 0.31 | 977.807 ± 0.31 | 972.094 ± 0.31 | 966.328 ± 0.31
x1 = 0.55 | 973.401 ± 0.31 | 967.993 ± 0.31 | 962.539 ± 0.31 | 957.039 ± 0.31 | 951.485 ± 0.31 | 945.875 ± 0.31
x1 = 0.5998 | 953.123 ± 0.31 | 947.916 ± 0.31 | 942.637 ± 0.31 | 937.302 ± 0.31 | 931.911 ± 0.31 | 926.465 ± 0.31
x1 = 0.6497 | 933.494 ± 0.31 | 928.405 ± 0.31 | 923.275 ± 0.31 | 918.089 ± 0.31 | 912.85 ± 0.31 | 907.552 ± 0.31
x1 = 0.6997 | 914.579 ± 0.31 | 909.663 ± 0.31 | 904.685 ± 0.31 | 899.659 ± 0.31 | 894.573 ± 0.31 | 889.432 ± 0.31
x1 = 0.7493 | 896.637 ± 0.31 | 891.863 ± 0.31 | 887.037 ± 0.31 | 882.154 ± 0.31 | 877.213 ± 0.31 | 872.217 ± 0.31
x1 = 0.8001 | 878.694 ± 0.31 | 874.079 ± 0.31 | 869.408 ± 0.31 | 864.68 ± 0.31 | 859.891 ± 0.31 | 855.042 ± 0.31
x1 = 0.8497 | 861.674 ± 0.31 | 857.211 ± 0.31 | 852.695 ± 0.31 | 848.111 ± 0.31 | 843.467 ± 0.31 | 838.76 ± 0.31
x1 = 0.8991 | 845.438 ± 0.31 | 841.13 ± 0.31 | 836.763 ± 0.31 | 832.331 ± 0.31 | 827.833 ± 0.31 | 823.267 ± 0.31
x1 = 0.9504 | 828.863 ± 0.31 | 824.722 ± 0.31 | 820.52 ± 0.31 | 816.244 ± 0.31 | 811.899 ± 0.31 | 807.481 ± 0.31

CCCCCCC(C)O (configuration not stated) [2-octanol] + ClCCCl
mass density [kg/m3]
Conditions | 288.15 K | 293.15 K | 298.15 K | 303.15 K | 308.15 K | 313.15 K
x1 = 0.0499 | 1215.16 ± 0.55 | 1208.22 ± 0.54 | 1201.27 ± 0.53 | 1194.29 ± 0.53 | 1187.27 ± 0.52 | 1180.23 ± 0.51
x1 = 0.1 | 1175.12 ± 0.51 | 1168.45 ± 0.5 | 1161.76 ± 0.49 | 1155.05 ± 0.48 | 1148.31 ± 0.47 | 1141.54 ± 0.47
x1 = 0.1503 | 1139.01 ± 0.46 | 1132.67 ± 0.46 | 1126.33 ± 0.45 | 1119.85 ± 0.44 | 1113.38 ± 0.43 | 1106.89 ± 0.43
x1 = 0.2006 | 1106.43 ± 0.42 | 1100.33 ± 0.42 | 1094.18 ± 0.41 | 1087.99 ± 0.41 | 1081.76 ± 0.4 | 1075.51 ± 0.39
x1 = 0.2498 | 1077.37 ± 0.39 | 1071.56 ± 0.39 | 1065.66 ± 0.38 | 1059.71 ± 0.37 | 1053.73 ± 0.37 | 1047.71 ± 0.36
x1 = 0.3 | – | – | – | – | 1027.49 ± 0.34 | –
x1 = 0.3002 | 1050.06 ± 0.36 | 1044.59 ± 0.36 | 1038.96 ± 0.35 | 1033.26 ± 0.34 | – | 1021.69 ± 0.33
x1 = 0.35 | 1025.54 ± 0.34 | 1020.16 ± 0.33 | 1014.7 ± 0.33 | 1009.18 ± 0.32 | 1003.62 ± 0.31 | 998.027 ± 0.31
x1 = 0.3999 | 1002.85 ± 0.31 | 997.633 ± 0.31 | 992.342 ± 0.31 | 987.014 ± 0.31 | 981.649 ± 0.31 | 976.252 ± 0.31
x1 = 0.4499 | 981.685 ± 0.31 | 976.658 ± 0.31 | 971.558 ± 0.31 | 966.415 ± 0.31 | 961.229 ± 0.31 | 956.01 ± 0.31
x1 = 0.4999 | 962.134 ± 0.31 | 957.22 ± 0.3 | 952.273 ± 0.3 | 947.296 ± 0.3 | 942.282 ± 0.3 | 937.233 ± 0.3
x1 = 0.5503 | 943.764 ± 0.3 | 939.011 ± 0.3 | 934.225 ± 0.3 | 929.407 ± 0.3 | 924.551 ± 0.3 | 919.661 ± 0.3
x1 = 0.5992 | 927.273 ± 0.3 | 922.663 ± 0.3 | 918.023 ± 0.3 | 913.351 ± 0.3 | 908.639 ± 0.3 | 903.897 ± 0.3
x1 = 0.6492 | 911.359 ± 0.3 | 906.886 ± 0.3 | 902.382 ± 0.3 | 897.844 ± 0.3 | 893.27 ± 0.3 | 888.66 ± 0.3
x1 = 0.6989 | 896.738 ± 0.3 | 892.39 ± 0.3 | 888.013 ± 0.3 | 883.603 ± 0.3 | 879.157 ± 0.3 | 874.674 ± 0.3
x1 = 0.7503 | 882.325 ± 0.3 | 878.102 ± 0.3 | 873.846 ± 0.3 | 869.558 ± 0.3 | 865.235 ± 0.3 | 860.873 ± 0.3
x1 = 0.7989 | 869.78 ± 0.3 | 865.66 ± 0.3 | 861.514 ± 0.3 | 857.336 ± 0.3 | 853.118 ± 0.3 | 848.865 ± 0.3
x1 = 0.8497 | 857.292 ± 0.3 | 853.282 ± 0.3 | 849.241 ± 0.3 | 845.167 ± 0.3 | 841.058 ± 0.3 | 836.912 ± 0.3
x1 = 0.899 | 845.686 ± 0.3 | 841.775 ± 0.3 | 837.835 ± 0.3 | 833.858 ± 0.3 | 829.849 ± 0.3 | 825.799 ± 0.3
x1 = 0.9492 | 834.672 ± 0.3 | 830.858 ± 0.3 | 827.012 ± 0.3 | 823.127 ± 0.31 | 819.211 ± 0.31 | 815.252 ± 0.31
